Assays:
[1] = Pharmacokinetic study Experiment #1, oral administration in rats; format: in vivo, rat; settings: 50 mg EqEYP001/Kg
Experimental: In a first study (Experiment #1), EYP001, EYP001 Meglumine salt, and EYP001 L-lysine salt Form I in aqueous formulations (0.5% CMC, 0.25% Tween 80, water) were orally administrated at a dose of 50 mg EqEYP001/Kg in 3 male rats for each compound. Blood samples were taken at 0.25 h, 0.5 h, 1 h, 2 h, 4 h, 6 h, 8 h, 12 h, and 24 h after oral administration.

[2] = Polymorph screening (solids analysed by XRPD); format: physicochemical; settings: form I as starting material
Experimental: A polymorph screening was performed on EYP001 L-lysine salt crystalline form I (form I as starting material unless otherwise specified).
A number of unique materials with different patterns were produced, including crystalline forms I-IV and an amorphous material. All solids from the screening experiments were analysed by XRPD analysis and the resulting patterns compared to that of the reference. The observed solids and their ways of obtention are described in Table 16.

[3] = male rats, versus EYP001 free acid
[4] = Entry 1: no solvent, 23% RH stress
[5] = Entry 2: no solvent, 40° C./75% RH stress
[6] = Entry 3: no solvent, 59% RH stress
[7] = Entry 7: no solvent, melt quench
[8] = Entry 8: no solvent, compression
[9] = Entry 13: DMSO, slurry (20° C.)
[10] = Entry 14: EtOAc, slurry (5° C.)
[11] = Entry 15: water, slurry (5° C.)
[12] = Entry 16: THF, flash evaporation
[13] = Entry 17: THF, flash evaporation
[14] = Entry 18: acetone, flash evaporation
[15] = Entry 19: DMSO, flash evaporation
[16] = Entry 20: EtOAc, flash evaporation
[17] = Entry 21: IPA, flash evaporation
[18] = Entry 22: water, flash evaporation
[19] = Entry 23: MeOH, flash evaporation
[20] = Entry 24: EtOH, flash evaporation
[21] = Entry 25: heptane, flash evaporation
[22] = Entry 26: EtOH, flash evaporation
[23] = Entry 27: THF/water (82:18% v/v), flash evaporation
[24] = Entry 29: acetone, slurry (5° C.)
[25] = Entry 30: DMSO, slurry (20° C.)
[26] = Entry 31: EtOAc, slurry (5° C.)
[27] = Entry 33: water, slurry (5° C.)
[28] = Entry 36: heptane, slurry (5° C.)
[29] = Entry 37: THF/water (82:18% v/v), slurry (5° C.)
[30] = Entry 39: acetone, slurry (60° C.)
[31] = Entry 40: DMSO, slurry (60° C.)
[32] = Entry 41: EtOAc, slurry (60° C.)
[33] = Entry 43: water, slurry (60° C.)
[34] = Entry 44: MeOH, slurry (60° C.)
[35] = Entry 45: EtOH, slurry (60° C.)
[36] = Entry 46: heptane, slurry (60° C.)
[37] = Entry 47: EtOH /water (96:4% v/v), slurry (60° C.)
[38] = Entry 49: acetone, vapour stress
[39] = Entry 56: heptane, vapour stress
[40] = Entry 58: THF/water (82:18% v/v), anti-solvent THF, vapour diffusion
[41] = Entry 59: THF/water (82:18% v/v), anti-solvent IPA, vapour diffusion
[42] = Entry 60: THF/water (82:18% v/v), anti-solvent EtOAc, vapour diffusion
[43] = Entry 61: acetone/water (50:50% v/v), slow cool
[44] = Entry 62: DMSO/water (80:20% v/v), slow cool
[45] = Entry 64: IPA/water (80:20% v/v), slow cool
[46] = Entry 65: MEOH/water (84:16% v/v), slow cool
[47] = Entry 66: THF/water (82:18% v/v), slow cool
[48] = Entry 67: THF/water (82:18% v/v), crash precipitation
[49] = Entry 69: DMSO, anti-solvent EtOAc, crash precipitation
[50] = Entry 70: THF/water (82:18% v/v), temperature cycle
[51] = Entry 71: DMSO/water (80:20% v/v), temperature cycle
[52] = Entry 72: MeOH/water (84:16% v/v), temperature cycle

NCCCC[C@H](N)C(=O)O.O=C(O)c1cc2c(Cl)c(N3CCN(S(=O)(=O)c4c(Cl)cccc4Cl)CC3)ccc2o1 [EYP001 L-lysine salt Form I, L-lysine salt of 4-chloro-5-[4-(2,6-dichlorophenyl)sulfonylpiperazin-1-yl]-1-benzofuran-2-carboxylic acid]
Mean AUC0-24 ([1]; male rats, aqueous formulation): 60011 ng·h/mL | Mean Cmax ([1]; male rats, aqueous formulation): 8827 ng/mL | % increase/EYP001 (AUC0-24) [1, 3]: +15% | % increase/EYP001 (Cmax) [1, 3]: +26% | C max compared to EYP001 free acid and EYP001 Meglumine salt ([1]; rat): higher C max | exposure (AUC0-24) compared to EYP001 free acid and EYP001 Meglumine salt ([1]; rat): superior exposure | Results [2, 4]: solid | XRPD [2, 4]: Form I | Results [2, 5]: solid | XRPD [2, 5]: Form I | Results [2, 6]: solid | XRPD [2, 6]: Form I | Results [2, 7]: solid | XRPD [2, 7]: Amorphous | Results [2, 8]: solid | XRPD [2, 8]: Form I | Results ([2]; Entry 10: no solvent, milling): solid | XRPD ([2]; Entry 10: no solvent, milling): Amorphous | Results ([2]; Entry 12: THF, slurry (50° C.)): solid | XRPD ([2]; Entry 12: THF, slurry (50° C.)): Amorphous | Results [2, 9]: solid | XRPD [2, 9]: Form I | Results [2, 10]: solid | XRPD [2, 10]: Form I | Results [2, 11]: solid | XRPD [2, 11]: Form III | Results [2, 12]: no solid | XRPD [2, 12]: Amorphous | Results [2, 13]: solid | XRPD [2, 13]: Form II | Results [2, 14]: solid | XRPD [2, 14]: Amorphous | Results [2, 15]: solid | XRPD [2, 15]: Form I | Results [2, 16]: solid | XRPD [2, 16]: Amorphous | Results [2, 17]: solid | XRPD [2, 17]: Amorphous | Results [2, 18]: solid | XRPD [2, 18]: Form I | Results [2, 19]: solid | XRPD [2, 19]: Form I | Results [2, 20]: solid | XRPD [2, 20]: Form I | Results [2, 21]: solid | XRPD [2, 21]: Form II | Results [2, 22]: solid | XRPD [2, 22]: Form I | Results [2, 23]: solid | XRPD [2, 23]: Form I | Results ([2]; Entry 28: THF, slurry (5° C.)): solid | XRPD ([2]; Entry 28: THF, slurry (5° C.)): Form I | Results [2, 24]: solid | XRPD [2, 24]: Form I | Results [2, 25]: solid | XRPD [2, 25]: Amorphous | Results [2, 26]: solid | XRPD [2, 26]: Form I | Results ([2]; Entry 32: IPA, slurry (5° C.)): solid | XRPD ([2]; Entry 32: IPA, slurry (5° C.)): Form I | Results [2, 27]: solid | XRPD [2, 27]: Form III | Results ([2]; Entry 34: MeOH, slurry (5° C.)): solid | XRPD ([2]; Entry 34: MeOH, slurry (5° C.)): Form IV | Results ([2]; Entry 35: EtOH, slurry (5° C.)): solid | XRPD ([2]; Entry 35: EtOH, slurry (5° C.)): Form I | Results [2, 28]: solid | XRPD [2, 28]: Amorphous | Results [2, 29]: solid | XRPD [2, 29]: Form I | Results ([2]; Entry 38: THF, slurry (60° C.)): solid | XRPD ([2]; Entry 38: THF, slurry (60° C.)): Form I | Results [2, 30]: solid | XRPD [2, 30]: Amorphous | Results [2, 31]: solid | XRPD [2, 31]: Form I | Results [2, 32]: solid | XRPD [2, 32]: Form I | Results ([2]; Entry 42: IPA, slurry (60° C.)): solid | XRPD ([2]; Entry 42: IPA, slurry (60° C.)): Form I | Results [2, 33]: solid | XRPD [2, 33]: Form III | Results [2, 34]: solid | XRPD [2, 34]: Form I | Results [2, 35]: solid | XRPD [2, 35]: Form I | Results [2, 36]: solid | XRPD [2, 36]: Amorphous | Results [2, 37]: solid | XRPD [2, 37]: Form I | Results ([2]; Entry 48: THF, vapour stress): solid | XRPD ([2]; Entry 48: THF, vapour stress): Amorphous | Results [2, 38]: solid | XRPD [2, 38]: Amorphous | Results ([2]; Entry 50: DMSO, vapour stress): solid | XRPD ([2]; Entry 50: DMSO, vapour stress): Amorphous | Results ([2]; Entry 51: EtOAc, vapour stress): solid | XRPD ([2]; Entry 51: EtOAc, vapour stress): Form I | Results ([2]; Entry 52: IPA, vapour stress): solid | XRPD ([2]; Entry 52: IPA, vapour stress): Form I | Results ([2]; Entry 53: water, vapour stress): solid | XRPD ([2]; Entry 53: water, vapour stress): Form I | Results ([2]; Entry 54: MeOH, vapour stress): solid | XRPD ([2]; Entry 54: MeOH, vapour stress): Form I | Results ([2]; Entry 55: EtOH, vapour stress): solid | XRPD ([2]; Entry 55: EtOH, vapour stress): Form I | Results [2, 39]: solid | XRPD [2, 39]: Amorphous | Results ([2]; Entry 57: THF/water (82:18% v/v), vapour stress): solution | Results [2, 40]: solid | XRPD [2, 40]: Form I | Results [2, 41]: solid | XRPD [2, 41]: Form I | Results [2, 42]: solid | XRPD [2, 42]: Form I | Results [2, 43]: solid | XRPD [2, 43]: Form I | Results [2, 44]: solid | XRPD [2, 44]: Form I | Results ([2]; Entry 63: water, slow cool): solid | XRPD ([2]; Entry 63: water, slow cool): Form III | Results [2, 45]: solid | XRPD [2, 45]: Form I | Results [2, 46]: solid | XRPD [2, 46]: Form I | Results [2, 47]: solid | XRPD [2, 47]: Form I | Results [2, 48]: solid | XRPD [2, 48]: Form I | Results ([2]; Entry 68: DMSO, anti-solvent THF, crash precipitation): no solid | Results [2, 49]: solid | XRPD [2, 49]: Amorphous | Results [2, 50]: solid | XRPD [2, 50]: Form I | Results [2, 51]: solid | XRPD [2, 51]: Form I | Results [2, 52]: solid | XRPD [2, 52]: Form I
